The values that follow come from publication PMC9040839 (mBio, 2022).

“And” between values parts separate entries of the source, which are not always exact repeats. Equal values may be shown once. “Also recorded” adds a separate entry of the source. Read-outs that look alike come from different tables or passages of the source.

For assay [1], the target named is PctD(PA4633)-LBD (Pseudomonas aeruginosa, UniProt Q9HVF8). The experiment in a line: biochemical. The settings on record: for KD / ΔH: ITC, 25°C, pH 7.5. How it is done:
Measurements were made using a VP-ITC microcalorimeter (MicroCal, Inc., Northampton, MA) at 25°C. […] The mean enthalpies from the injection of ligands into the buffer were subtracted from raw data prior to data fitting using the “one binding site model” of the MicroCal version of the ORIGIN software.

Assay [2] has as its target PacA(ECA_RS10935)-LBD (Pectobacterium atrosepticum, UniProt Q6D515). The experiment in a line: Isothermal titration calorimetry of PacA-LBD with ligands. The format is binding, P. atrosepticum SCRI1043. The settings on record: ITC, 25°C, pH 7.0. On the technique in general: ITC needs no label: the signal is the heat of the interaction.
Protocol: Measurements were made using a VP-ITC microcalorimeter (MicroCal, Inc., Northampton, MA) at 25°C. PA4633-LBD was dialyzed into 5 mM Tris, 5 mM PIPES [piperazine-N,N′-bis(2-ethanesulfonic acid)], 5 mM MES (morpholineethanesulfonic acid), 150 mM NaCl, 10% (vol/vol) glycerol, pH 7.5, whereas ECA_RS10935-LBD was dialyzed into 40 mM KH2PO4/K2HPO4, 10% (vol/vol) glycerol, pH 7.0. Proteins at 15 to 22 μM were placed into the sample cell and titrated with 9.6-μL aliquots of 0.5 to 10 mM ligand solutions made up in dialysis buffer. […] The mean enthalpies from the injection of ligands into the buffer were subtracted from raw data prior to data fitting using the “one binding site model” of the MicroCal version of the ORIGIN software.
Assay [3] relates to P. aeruginosa PAO1. The format is cell-based, Pseudomonas aeruginosa. The note with it: capillary assay; for concentration of maximal chemotaxis response / response threshold of chemotaxis: 30 min; for maximal accumulation: at 10 μM. How it is done: (§1) Overnight cultures in M9 minimal medium supplemented with 6 mg/L Fe-citrate, trace elements ([89]), and 15 mM glucose were used to inoculate fresh medium to an OD660 of 0.05. Cells were cultured at 30°C (Pectobacterium atrosepticum, Pantoea agglomerans, Serratia plymuthica, Pseudomonas stutzeri, Agrobacterium tumefaciens, Dickeya solani, Pseudomonas savastanoi pv. savastanoi) or 37°C (P. aeruginosa, E. coli, Salmonella enterica serovar Typhimurium) to an OD660 of 0.4 to 0.5. Subsequently, cells were washed twice by centrifugation (1,667 × g for 5 min at room temperature) and resuspension in chemotaxis buffer (50 mM KH2PO4/K2HPO4, […], 0.05% [vol/vol] glycerol, pH 7.0) and then resuspended in the same buffer at an OD660 of 0.1. Aliquots (230 μL) of the resulting cell suspension were placed into the wells of 96-well microtiter plates. Then, 1-μL capillaries (Microcaps, Drummond Scientific) were heat-sealed at one end and filled with buffer (control) or chemoeffector solution prepared in chemotaxis buffer. The capillaries were rinsed with sterile water and immersed into the bacterial suspensions at their open ends. After 30 min, capillaries were removed from the wells, rinsed with sterile water, and emptied into 1 mL of chemotaxis buffer. Serial dilutions were plated onto M9 minimal medium plates supplemented with 20 mM glucose, incubated at 30°C or 37°C prior to colony counting. Data were corrected with the number of cells that swam into buffer containing capillaries. Data are the means and standard deviations of three biological replicates conducted in triplicate.

The test system of assay [4] is P. atrosepticum SCRI1043. As to the kind of experiment: Capillary chemotaxis assay. The format is cell-based, Pectobacterium atrosepticum. The note with it: 1 mM chemoeffector. As for the experimental part: as §1
Assay [5] addresses PctD-Tar hybrid (Pseudomonas aeruginosa, UniProt Q9HVF8). The experiment in a line: cell-based.
In assay [6] the test system is E. coli strain UU1250 expressing PctD-Tar. The format is cell-based. As for the experimental part:
The microfluidic assay was performed as previously described, using a chip with 24 parallel microchannels ([105]). […]. Cells were harvested by centrifugation and washed twice with tethering buffer. Chemoeffectors were dissolved in tethering buffer at a concentration of 50 mM, and the pH was adjusted to 7.0. The chemical source microchannels were filled with 4% (wt/vol) agarose gel to create a semipermeable barrier. E. coli cells were added to the reservoir well and allowed to spread for 30 min into the channels. Compounds were added to the source well and allowed to form a concentration gradient. Cell fluorescence was recorded with a Ti-E inverted microscope system (Nikon Instruments Europe BV, Amsterdam, Netherlands) using a 20×lens objective. Data were analyzed using ImageJ (Wayne Rasband, NIH, USA).

Assay [7] has as its system Agrobacterium tumefaciens C58. The experiment in a line: Capillary chemotaxis assay. The note with it: 1 mM acetylcholine. The format is cell-based. How it is done: as §1, with “Data were corrected with the number of cells that swam into buffer containing capillaries. Data are the means and standard deviations of three biological replicates conducted in triplicate.” left out

Assay [8] deals with Dickeya solani MK10. The experiment in a line: Capillary chemotaxis assay. The format is cell-based. The settings on record: 1 mM acetylcholine. How it is done: as §1, with “Data were corrected with the number of cells that swam into buffer containing capillaries. Data are the means and standard deviations of three biological replicates conducted in triplicate.” left out
Assay [9] addresses BmrR. Details: method as in PMID 21690368. The note with it: cited from earlier work.
Assay [10] deals with P. aeruginosa PAO1. The experiment in a line: Growth experiments with Biolog compound array PM2A. The format is cell-based, Pseudomonas aeruginosa. The note with it: M9 minimal medium, 96-well plate, 48 h, 37°C. How it is done:
PAO1 was grown overnight in M9 minimal medium containing 10 mM glucose. Cultures were washed twice and then diluted to an OD600 of 0.02 in either M9 or M8 medium (M9 minimal medium without NH4Cl) containing 10 mM glucose and medium supplemented with each of the compounds present in the Biolog compound array PM2A (https://www.biolog.com/wp-content/uploads/2020/04/00A-042-Rev-C-Phenotype-MicroArrays-1-10-Plate-Maps.pdf) as sole carbon source. Then, 200 μL of these cultures were transferred into microwell plates, and growth at 37°C was followed on a Bioscreen microbiological growth analyzer (Oy Growth Curves Ab Ltd., Helsinki, Finland).

Assay [11] deals with TlpQ. The note with it: cited from earlier work.
Assay [12] deals with P. aeruginosa. The settings on record: cited from earlier work.

One may read the Kd as the free concentration of one partner at which half of the binding sites on the other are occupied at equilibrium, for simple one-to-one binding. Broadly, the EC50 is the midpoint of the concentration-response curve.

Chain of PacA(ECA_RS10935)-LBD (Q6D515 entry or part of it): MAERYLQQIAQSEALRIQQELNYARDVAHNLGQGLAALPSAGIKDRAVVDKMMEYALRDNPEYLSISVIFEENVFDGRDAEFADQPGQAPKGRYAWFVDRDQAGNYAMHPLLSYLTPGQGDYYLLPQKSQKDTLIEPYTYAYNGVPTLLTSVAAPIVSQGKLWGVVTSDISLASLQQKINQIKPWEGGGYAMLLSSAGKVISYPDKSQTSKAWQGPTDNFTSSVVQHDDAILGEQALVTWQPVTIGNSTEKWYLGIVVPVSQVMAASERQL
Chain of PctD-Tar hybrid (Q9HVF8 entry or part of it): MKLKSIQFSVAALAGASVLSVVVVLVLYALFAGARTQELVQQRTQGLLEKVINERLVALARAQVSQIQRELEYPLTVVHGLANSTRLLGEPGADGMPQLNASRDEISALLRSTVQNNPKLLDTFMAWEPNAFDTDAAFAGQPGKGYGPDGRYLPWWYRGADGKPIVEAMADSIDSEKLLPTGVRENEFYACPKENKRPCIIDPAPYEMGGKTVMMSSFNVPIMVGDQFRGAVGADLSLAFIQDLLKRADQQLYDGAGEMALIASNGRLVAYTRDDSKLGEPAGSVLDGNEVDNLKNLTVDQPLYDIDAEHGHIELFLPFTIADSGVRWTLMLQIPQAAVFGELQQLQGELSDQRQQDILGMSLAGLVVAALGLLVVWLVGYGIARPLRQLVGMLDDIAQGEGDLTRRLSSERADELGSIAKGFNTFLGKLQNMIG
Chain of PctD-Tar hybrid (P07017 267-553, further chain): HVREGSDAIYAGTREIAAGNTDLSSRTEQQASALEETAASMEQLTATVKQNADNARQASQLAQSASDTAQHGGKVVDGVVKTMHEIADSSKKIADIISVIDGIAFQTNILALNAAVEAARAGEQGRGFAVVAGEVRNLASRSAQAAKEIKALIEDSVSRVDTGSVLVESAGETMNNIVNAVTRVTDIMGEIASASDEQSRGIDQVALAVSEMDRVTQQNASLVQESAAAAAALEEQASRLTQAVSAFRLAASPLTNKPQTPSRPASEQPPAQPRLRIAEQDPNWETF
Chain of PctD(PA4633)-LBD (Q9HVF8 entry or part of it): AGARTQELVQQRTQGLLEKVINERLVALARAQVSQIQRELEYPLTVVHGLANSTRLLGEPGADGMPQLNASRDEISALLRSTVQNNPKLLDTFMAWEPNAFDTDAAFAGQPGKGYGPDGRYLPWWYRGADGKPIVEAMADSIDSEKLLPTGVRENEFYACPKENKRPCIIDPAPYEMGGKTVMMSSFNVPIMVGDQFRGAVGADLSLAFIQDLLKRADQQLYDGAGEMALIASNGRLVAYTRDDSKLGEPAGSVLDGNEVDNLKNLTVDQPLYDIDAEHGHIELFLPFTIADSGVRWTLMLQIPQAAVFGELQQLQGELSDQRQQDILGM

Take `C[N+](C)(C)CC(=O)O` [betaine]: in assay [1], the Kd is 990 ± 59 µM, the KD result is recorded as “low affinity” and the ΔH was -2.4 ± 4.1 kcal/mol. In assay [2], this compound gave a Kd of 7.5 ± 0.1 µM and a ΔH of -16.1 ± 0.1 kcal/mol. In addition, in assay [3], the “chemoattraction” value was “comparable to that of L-carnitine”. The chemotaxis response entry in [4] is on record as “low but reproducible chemotaxis”. In assay [5], this compound returned an EC50 of 150 ± 25 µM.
For the compound `CC(=O)OCC[N+](C)(C)C` [acetylcholine], the ΔH in [1] was -12.2 ± 1.0 kcal/mol. Moreover, in assay [2], the KD result is “fails to recognize; also recorded: absence of binding” and the ΔH result is recorded as “No binding”. Besides, the KD entry in assay [2] (listed as Acetylcholine) is on record as “No binding”. For the same compound, in assay [3], the “concentration of maximal chemotaxis response” value worked out at 10 µM, the “response threshold of chemotaxis” value turned out to be 1 µM and the maximal accumulation is on record as ~300,000 bacteria per capillary. Besides, the “chemoattraction in microfluidic assay” value in [6] (50 mM in source channel) is “much stronger chemoattraction”. Also, the chemotaxis response result in [4] was “failed to respond”. For the same compound, in assay [7], the magnitude of chemotaxis result was “comparable to that in P. aeruginosa”. The magnitude of chemotaxis entry in [8] is recorded as “about a third of that observed in P. aeruginosa”. Besides, the dissociation constant Kd in assay [9] was 6.6 µM.
`C[N+](C)(C)C[C@H](O)CC(=O)[O-]` [L-carnitine]: in assay [1], the KD entry is reported as “No response; also recorded: could not be visualized; also recorded: No binding” and the ΔH result is given as “No binding”. In [2], this compound registered a Kd of 20 ± 2 µM and a ΔH of -4.9 ± 0.4 kcal/mol. Also, in [3], the “chemoattraction” value is on record as “chemoattraction”, the “concentration of maximal chemotaxis response” value came out at 10000 µM and the “response threshold of chemotaxis” value amounted to 100 µM. Besides, the chemotaxis response result in assay [4] is recorded as “low but reproducible chemotaxis”. Moreover, the “growth as carbon source” value in assay [10] is on record as “significant growth”. This compound also gave an EC50 in assay [5] of 31 ± 6 µM.
Take `NCCc1c[nH]cn1` [histamine]: the Kd in assay [11] was 0.64 µM and 1.2 µM. Besides, the “lowest concentration giving attraction” value in [12] is 500 nM.
In [1], `C[N+](C)(C)CCO` [choline] registered a Kd of 2.6 ± 0.1 µM and a ΔH of -20.3 ± 0.3 kcal/mol. For the same compound, in [2], binding was characterised by a dissociation constant (Kd) of 113 ± 16.4 µM and the ΔH was -2.1 ± 0.2 kcal/mol. In assay [3], the “concentration of maximal chemotaxis response” value was found to be 10 µM, the “response threshold of chemotaxis” value is 0.1 µM and the maximal accumulation is recorded as ~300,000 bacteria per capillary. The “chemoattraction in microfluidic assay” value in assay [6] is on record as “much stronger chemoattraction”. For the same compound, the chemotaxis response entry in assay [4] is listed as “low but reproducible chemotaxis”. Also, the EC50 in assay [5] was determined as 0.04 ± 0.01 µM.
